From publication PMC5808567 (Journal of medicinal chemistry, 2018)

Experiments:
[1] = Metal chelation by UV spectroscopy, Fe3+; format: physicochemical; details: 100 µM E-3a, 10 mM ammonium acetate pH 7.0, anaerobic, metal 100 µM-5 mM
[2] = tested on: normal mobilized peripheral blood progenitor cells; details: cited from earlier work
[3] = tested on: HCT116 and MDA-MB-231 cell lines; assay: Growth inhibition assay, both cancer cell lines; format: cell-based; details: Homo sapiens, 72 h, read-out: growth inhibition IC50

| SMILES | chelation of Fe^3+ [1] | cytotoxicity against normal cells [2] | IC50 [3] [nM] |
| --- | --- | --- | --- |
| O=C(N/N=C/c1c(O)ccc2ccccc12)c1ccccc1O [E-3a, 2-hydroxy-N'-((2-hydroxynaphthalen-1-yl)methylene)benzohydrazide] | does not chelate Fe^3+ ions | little cytotoxicity | – |
| Nc1ccn([C@@H]2O[C@H](CO)[C@@H](O)C2(F)F)c(=O)n1 [gemcitabine] | – | – | 30 to 100 |
